Experimental findings from patent publication US6878742B2, “Heterocyclic sulfonamide inhibitors of beta amyloid production” (Wyeth, priority 2000, dated 2005) are described below.

Values joined by “and” are separate entries in the source; they are usually repeats but may differ in a detail not shown here. Equal values may be shown once. Read-outs that look alike come from different tables or passages of the source.

For the assay, the system named is amyloid precursor protein (APP) proteolysis. The experiment in a line: Repressor Release Assay (RRA). Format: cell-based. As for the experimental part:
The beta amyloid inhibitory activity of many of the compounds of the present invention has been determined using the Repressor Release Assay (RRA). See, Table 23 below. A compound is considered active in RRA if it leads to at least a 1.5 fold increase in luciferase activity at 20 μM and is non-toxic.
The compounds generated as described in Examples 1 through 220 were tested in the RRA in accordance with published techniques [Shuey, D. J., Sheiffele, P., Jones, D., Cockett, M. I., and Quinet, E. M. (1999), “Repressor release: a useful tool for monitoring amyloid precursor protein (APP) proteolysis in mammalian cells”, Society for Neuroscience Abstracts, Vol. 25, 29th Annual Meeting of Society for Neuroscience, Miami Beach, Fla., Oct. 23-28, 1999]. Briefly, this assay is performed as follows.
CHO-K1 cells are cultured in whole DMEM media (DMEM—High Glucose with 10% fetal bovine serum, 1% Non-essential Amino Acids, and 1% Penicillin-Streptomycin) at 37° C. with 5% CO2. Two million cells are plated into 10-cm dishes 24 hrs prior to transfection.
Transient transfections are completed as recommended by Gibco BRL using their Lipofectamine Plus system. First, 6 μg of pRSVO-luc and 6 μg of APP-lacI construct DNA are added to 460 μL Opti-Mem transfection media and incubated with 30 μL Plus reagent for 15 minutes. Then, a lipid mixture of 40 μL Lipofectamine reagent and 460 μL Opti-Mem transfection media is incubated with the DNA-Plus reagent mixture for 15 minutes. During the DNA-lipid incubation, the CHO-K1 cells are washed once and covered in 5.0 mL DMEM media without Penicillin-Streptomycin. The DNA-lipid preparation is then layered onto these cells and incubated at 37° C. overnight.
One and one half million transfected cells per well (100 μL total volume) are plated into sterile, opaque Packard 96-well Cultur-Plates in clear DMEM whole media (DMEM—without phenol red) and incubated at 37° C. with 5% CO2 for 3-5 hours.
Compounds are diluted using two different protocols; one protocol is used for compounds supplied neat (weighed powder in vial) and the other protocol is used for compounds supplied in solution (20 mM in DMSO in 96-well plates). For both protocols, 25 mM Hepes and 25 mM Hepes/1% DMSO are prepared fresh to be used as diluent. The Hepes/DMSO is used as the diluent control on all experimental plates.
The following table depicts the steps for compound dilution (please note that the last step is the addition of compound to cells/media in tissue culture plate):
Because some compounds arrive in 96-well format at 20 mM, the following represents the protocol for their dilution (note that an average molecular weight of these compounds was used to calculate these dilutions and as above, the last step is the addition of compound to cells/media in tissue culture plate):
Once compounds are diluted, they are applied in duplicate on cells in tissue culture plates (prepared above). Cells are incubated with compound at 37° C. with 5% CO2 for an additional 36-48 hours.
Luciferase assays (LucLite reagent, Packard) are performed and are read on a Packard TopCount instrument. Media is removed from each 96-well plate and replaced with 100 μL PBS per well (with Mg^2+ and Ca^2+). An equal volume (100 μL) of the LucLite lysis/substrate buffer is added to each well and the plates are sealed and mixed in the dark on a rotary shaker for 15-30 minutes at room temperature. Luciferase readings are then taken on the TopCount instrument. Measurements are expressed as relative light units (RLU) and are calculated and analyzed in MS Excel as follows.
A compound is considered active in RRA if it leads to at least a 1.5 fold increase in luciferase activity at 20 μM and is non-toxic, as determined by loss of signal (≦0.75 fold increase). Fold increase is the amount of luciferase activity (measured in relative light units) over diluent control. SEM represents the standard error of the mean for fold increase (not shown).

The mark [1] stands for this setting: Conc 10 μg/mL, luciferase activity over diluent control, read-out: APPI Fold Increase.
The mark [2] stands for this setting: Conc 20 μg/mL, luciferase activity over diluent control, read-out: APPI Fold Increase.
Where [3] appears, read: Conc 20 μg/mL, luciferase activity over diluent control.
Where [4] appears, read: Conc 10 μg/mL, luciferase activity over diluent control.

Consider `CC[C@H](C)[C@H](NS(=O)(=O)c1ccc(Cl)s1)C(O)(c1ccccc1)c1ccccc1` [Example 164, 5-chloro-N-{(S,S)-1-[hydroxy(diphenyl)methyl]-2-methylbutyl}thiophene-2-sulfonamide], for which the fold induction at 10 µg/mL under setting [1] was 1.72. As for `CC[C@H](C)[C@@H](CO)NS(=O)(=O)c1ccc(Cl)o1` [Example 204, 5-Chloro-N-[(1S,2S)-1-(hydroxymethyl)-2-methylbutyl]-2-furansulfonamide], the fold induction at 20 µg/mL under setting [2] worked out at 2.8. With `C=C(C)C(O)(C(=C)C)[C@@H](NS(=O)(=O)c1ccc(Br)s1)[C@@H](C)CC` [Example 174, 5-bromo-N-{(S)-2-hydroxy-2-isopropenyl-3-methyl-1-[(S)-1-methylpropyl]but-3-enyl}thiophene-2-sulfonamide], the fold induction at 10 µg/mL under setting [1] is 1.75. Consider `O=S(=O)(NC1(CO)CC2CCC1C2)c1ccc(Cl)s1` (centres unmarked) [Example 178, 5-chloro-N-[2-(hydroxymethyl)bicyclo[2.2.1]hept-2-yl]thiophene-2-sulfonamide], for which the fold induction at 20 µg/mL under setting [2] was found to be 2.3. Still for that read-out and setting: for `CCCCC[C@H](CC(C)C)[C@@H](CO)NS(=O)(=O)c1ccc(Cl)s1` [Example 42, 5-chloro-N-[(1S,2R)-1-(hydroxymethyl)-2-isobutylheptyl]thiophene-2-sulfonamide] the value was 3.4. For the compound `C=CCC(O)[C@@H](NS(=O)(=O)c1cccs1)[C@@H](C)CC` (stereo partly drawn) [Example 147, N-{(S)-2-hydroxy-1-[(S)-1-methylpropyl]pent-4-enyl}thiophene-2-sulfonamide], the fold induction at 10 µg/mL under setting [1] was 2.04.

As for `CCCCCC(O)[C@@H](NS(=O)(=O)c1cccs1)[C@@H](C)CC` (stereo partly drawn) [Example 142, N-{(S)-2-hydroxy-1-[(S)-1-methylpropyl]heptyl}thiophene-2-sulfonamide], the fold induction at 10 µg/mL under setting [1] amounted to 3.59. On to `CCCCC[C@H](c1ccc(OC)cc1)[C@@H](CO)NS(=O)(=O)c1ccc(Cl)s1` [Example 43, 5-chloro-N-[(1S,2R)-1-(hydroxymethyl)-2-(4-methoxyphenyl)heptyl]thiophene-2-sulfonamide], for which the fold induction at 20 µg/mL under setting [2] stood at 1.7. Turning to `O=S(=O)(NC(CO)C1CC=CCC1)c1ccc(Cl)s1` (centres unmarked) [Example 23, 5-chloro-N-(1-cyclohex-3-en-1-yl-2-hydroxyethyl)thiophene-2-sulfonamide], the fold induction at 20 µg/mL (read-out: APPI Fold Increase) turned out to be 6.4. For `C[C@@H](c1ccco1)[C@@H](CO)NS(=O)(=O)c1ccc(Cl)s1` [Example 48, 5-chloro-N-[(1S,2R)-2-(2-furyl)-1-(hydroxymethyl)propyl]thiophene-2-sulfonamide], the fold induction at 20 µg/mL under setting [2] was found to be 4.7.

For the compound `CCCCCC[C@@H](C(C)C)[C@@H](CO)NS(=O)(=O)c1ccc(Cl)s1` [Example 52, 5-chloro-N-[(1S,2S)-1-(hydroxymethyl)-2-isopropyloctyl]thiophene-2-sulfonamide], under setting [2], the fold induction at 20 µg/mL was 7. Regarding `CNC1CCC([C@@H](CO)NS(=O)(=O)c2ccc(Cl)s2)CC1` (stereo partly drawn) [Example 212, 5-chloro-N-[(S)-2-hydroxy-1-(4-methylaminocyclohexyl)ethyl]thiophene-2-sulfonamide], the fold induction at 20 µg/mL under setting [2] worked out at 1.7. For `O=S(=O)(N[C@H](CO)C1CCNCC1)c1ccc(Cl)s1` [Example 225, 5-Chloro-N-[(S)-2-hydroxy-1-piperidin-4-ylethyl]thiophene-2-sulfonamide], under setting [2], the fold induction at 20 µg/mL was 8. Take `CCCCC(CC)C(CO)NS(=O)(=O)c1ccc(Cl)s1` (centres unmarked) [Example 21, 5-chloro-N-[2-ethyl-1-(hydroxymethyl)hexyl]thiophene-2-sulfonamide]: the fold induction at 20 µg/mL (read-out: APPI Fold Increase) is 3.3. On to `O=S(=O)(NC1(CO)CCc2ccccc21)c1ccc(Cl)s1` (centres unmarked) [Example 179], for which, under setting [3], the “APPI Fold Increase” value was 8.3 fold. In the case of “5-bromo-N-{(S,R)-2-hydroxy-1-[(S)-1-methylpropyl]pent-4-enyl}thiophene-2-sulfonamide [Example 195]”, the “APPI Fold Increase” value under setting [3] was 4.2 fold and 6.7 fold. As to `O=S(=O)(N[C@H](CO)CC1CCCCC1)c1ccc(Br)s1` [Example 110], the “APPI Fold Increase” value is, setting by setting: under setting [4], 1.71 fold; under setting [3], 2.9 fold and 2.3 fold and 3.6 fold. As for `CC[C@@H](c1ccccc1)[C@@H](CO)NS(=O)(=O)c1ccc(Br)s1` [Example 67, 5-bromo-N-[(1S,2S)-1-(hydroxymethyl)-2-phenylbutyl]thiophene-2-sulfonamide], under setting [2], the fold induction at 20 µg/mL came out at 4.7. Turning to `CC(NCCO)[C@@H](CO)NS(=O)(=O)c1ccc(Cl)s1` (stereo partly drawn) [Example 81, 5-chloro-N-[(1S)-2-[(2-hydroxyethyl)amino]-1-(hydroxymethyl)propyl]-2-thiophenesulfonamide], under setting [2], the fold induction at 20 µg/mL was 1.5. On to `CC(C)C[C@@H](c1ccco1)[C@@H](CO)NS(=O)(=O)c1ccc(Br)s1` [Example 72, 5-bromo-N-[(1S,2R)-2-(2-furyl)-1-(hydroxymethyl)-4-methylpentyl]thiophene-2-sulfonamide], for which the fold induction at 20 µg/mL under setting [2] worked out at 6.4. For the compound `CC[C@H](C)[C@H](NS(=O)(=O)c1ccc(Cl)s1)C(O)(CC)CC` [Example 166, 5-chloro-N-{(S)-2-ethyl-2-hydroxy-1-[(S)-1-methylpropyl]butyl}thiophene-2-sulfonamide], under setting [1], the fold induction at 10 µg/mL was 1.78. Regarding `O=S(=O)(N[C@H](CO)Cc1ccccc1)c1ccc(Cl)s1` [Example 96, N-[(S)-1-benzyl-2-hydroxyethyl]-5-chlorothiophene-2-sulfonamide], the fold induction at 20 µg/mL under setting [2] was 1.5. Consider `CC(C)(CO)NS(=O)(=O)c1ccc(Cl)s1` [Example 92, 5-chloro-N-(2-hydroxy-1,1-dimethylethyl)thiophene-2-sulfonamide], for which the fold induction at 20 µg/mL under setting [2] was determined as 1.5. As to `CCCCCC[C@H](CC)[C@@H](CO)NS(=O)(=O)c1ccc(Br)s1` [Example 78B, 5-bromo-N-[(1S,2S)-2-ethyl-1-(hydroxymethyl)octyl]thiophene-2-sulfonamide], the fold induction at 20 µg/mL under setting [2] is 23. As for `O=S(=O)(NC(CO)C1CCCCC1)c1ccc(Br)s1` (centres unmarked) [Example 13], the “APPI Fold Increase” value (Conc 1 μg/mL, luciferase activity over diluent control) turned out to be 2.17 fold; the “APPI Fold Increase” value (Conc 3 μg/mL, luciferase activity over diluent control) was 4.02 fold; the “APPI Fold Increase” value under setting [4] is given as 3.94 fold. As to `CC(C)[C@@H](CO)NS(=O)(=O)c1ccc(Cl)s1` [Example 8, 5-Chloro-N-[(1S)-1-(hydroxymethyl)-2-methylpropyl]thiophene-2-sulfonamide], the fold induction at 1 µg/mL (Conc 1 μg/mL, luciferase activity over diluent control, read-out: APPI Fold Increase) came out at 1.5. Where the note is “Conc 3 μg/mL, luciferase activity over diluent control, read-out: APPI Fold Increase”, the fold induction at 3 µg/mL stood at 2.5. Also, the fold induction at 10 µg/mL under setting [1] was 3.7. Further, the fold induction at 20 µg/mL under setting [2] was found to be 3.3. On to `C[C@@H](c1ccc(-c2ccccc2)cc1)[C@@H](CO)NS(=O)(=O)c1ccc(Cl)s1` [Example 53, N-[(1S,2S)-2-[1,1'-biphenyl]-4-yl-1-(hydroxymethyl)propyl]-5-chlorothiophene-2-sulfonamide], for which, under setting [2], the fold induction at 20 µg/mL stood at 3.9. On to `O=S(=O)(N[C@H](CO)C1CCC(NCc2ccccc2)CC1)c1ccc(Cl)s1` (stereo partly drawn) [Example 211, 5-Chloro-N-[(S)-2-hydroxy-1-(4-benzylaminocyclohexyl)ethyl]thiophene-2-sulfonamide], for which the fold induction at 20 µg/mL under setting [2] turned out to be 1.9.

Take `O=S(=O)(N[C@H](CO)Cc1ccc(OCc2ccccc2)cc1)c1ccc(Br)s1` [Example 116, N-{(S)-1-[4-(benzyloxy)benzyl]-2-hydroxyethyl}-5-bromothiophene-2-sulfonamide]: the fold induction at 20 µg/mL under setting [2] came out at 2.2.
